# Results as given in ChEMBL document CHEMBL4308841, “Synthesis, in vitro antiproliferative activity, and kinase inhibitory effects of pyrazole-containing diarylureas and diarylamides” (Eur J Med Chem, 2018).
# What was measured:
# [1] = system: LOX IMVI; experiment: Growth inhibition of human LOXIMVI cells assessed as cell growth at 1 uM incubated for 48 hrs by sulforhodamine B assay relative to control; assay type: functional; conditions: read-out: Activity
# [2] = system: SF-539; experiment: Growth inhibition of human SF539 cells incubated for 48 hrs by sulforhodamine B assay; assay type: functional, cell-based; conditions: SF-539, 48 h
# [3] = system: K562; experiment: Growth inhibition of human K562 cells assessed as cell growth at 0.01 uM incubated for 48 hrs by sulforhodamine B assay relative to control; assay type: functional; conditions: K562, 48 h, read-out: Activity
# [4] = system: MDA-MB-468; experiment: Growth inhibition of human MDA-MB-468 cells incubated for 48 hrs by sulforhodamine B assay; assay type: functional, cell-based; conditions: MDA-MB-468, 48 h
# [5] = system: Hs-578T; experiment: Growth inhibition of human Hs578T cells assessed as cell growth at 100 uM incubated for 48 hrs by sulforhodamine B assay relative to control; assay type: functional; conditions: read-out: Activity
# [6] = system: MDA-MB-435; experiment: Growth inhibition of human MDA-MB-435 cells incubated for 48 hrs by sulforhodamine B assay; assay type: functional, cell-based; conditions: MDA-MB-435, 48 h
# [7] = system: UACC-62; experiment: Growth inhibition of human UACC62 cells assessed as cell growth at 0.1 uM incubated for 48 hrs by sulforhodamine B assay relative to control; assay type: functional; conditions: UACC-62, 48 h, read-out: Activity
# [8] = system: LOX IMVI; experiment: Growth inhibition of human LOXIMVI cells assessed as cell growth at 0.1 uM incubated for 48 hrs by sulforhodamine B assay relative to control; assay type: functional; conditions: read-out: Activity
# [9] = system: UO-31; experiment: Growth inhibition of human UO31 cells assessed as cell growth at 0.01 uM incubated for 48 hrs by sulforhodamine B assay relative to control; assay type: functional; conditions: UO-31, 48 h, read-out: Activity
# [10] = system: SF-539; experiment: Growth inhibition of human SF539 cells assessed as cell growth at 0.1 uM incubated for 48 hrs by sulforhodamine B assay relative to control; assay type: functional; conditions: SF-539, 48 h, read-out: Activity
# [11] = system: SK-MEL-28; experiment: Growth inhibition of human SK-MEL-28 cells incubated for 48 hrs by sulforhodamine B assay; assay type: functional, cell-based; conditions: SK-MEL-28, 48 h
# [12] = system: A498; experiment: Growth inhibition of human A498 cells assessed as cell growth at 0.01 uM incubated for 48 hrs by sulforhodamine B assay relative to control; assay type: functional; conditions: A498, 48 h, read-out: Activity
# [13] = system: SNB-19; experiment: Growth inhibition of human SNB19 cells assessed as cell growth at 100 uM incubated for 48 hrs by sulforhodamine B assay relative to control; assay type: functional; conditions: SNB-19, 48 h, read-out: Activity
# [14] = system: T47D; experiment: Growth inhibition of human T47D cells assessed as cell growth at 0.1 uM incubated for 48 hrs by sulforhodamine B assay relative to control; assay type: functional; conditions: read-out: Activity
# [15] = system: RPMI-8226; experiment: Growth inhibition of human RPMI8226 cells assessed as cell growth at 0.01 uM incubated for 48 hrs by sulforhodamine B assay relative to control; assay type: functional; conditions: RPMI-8226, 48 h, read-out: Activity
# [16] = system: MDA-MB-231; experiment: Growth inhibition of human MDA-MB-231 cells incubated for 48 hrs by sulforhodamine B assay; assay type: functional, cell-based; conditions: MDA-MB-231, 48 h
# [17] = system: OVCAR-5; experiment: Growth inhibition of human OVCAR5 cells assessed as cell growth at 0.01 uM incubated for 48 hrs by sulforhodamine B assay relative to control; assay type: functional; conditions: OVCAR-5, 48 h, read-out: Activity
# [18] = system: A549; experiment: Growth inhibition of human A549/ATCC cells incubated for 48 hrs by sulforhodamine B assay; assay type: functional, cell-based; conditions: A549, 48 h
# [19] = system: SF-268; experiment: Growth inhibition of human SF268 cells assessed as cell growth at 1 uM incubated for 48 hrs by sulforhodamine B assay relative to control; assay type: functional; conditions: SF-268, 48 h, read-out: Activity
# [20] = system: BT-549; experiment: Growth inhibition of human BT549 cells assessed as cell growth at 0.1 uM incubated for 48 hrs by sulforhodamine B assay relative to control; assay type: functional; conditions: BT-549, 48 h, read-out: Activity
# [21] = system: RPMI-8226; experiment: Growth inhibition of human RPMI8226 cells assessed as cell growth at 0.1 uM incubated for 48 hrs by sulforhodamine B assay relative to control; assay type: functional; conditions: RPMI-8226, 48 h, read-out: Activity
# [22] = system: K562; experiment: Growth inhibition of human K562 cells assessed as cell growth at 1 uM incubated for 48 hrs by sulforhodamine B assay relative to control; assay type: functional; conditions: K562, 48 h, read-out: Activity
# [23] = system: SF-295; experiment: Growth inhibition of human SF295 cells incubated for 48 hrs by sulforhodamine B assay; assay type: functional, cell-based; conditions: SF-295, 48 h
# [24] = system: SW-620; experiment: Growth inhibition of human SW620 cells assessed as cell growth at 1 uM incubated for 48 hrs by sulforhodamine B assay relative to control; assay type: functional; conditions: SW-620, 48 h, read-out: Activity
# [25] = system: ACHN; experiment: Growth inhibition of human ACHN cells assessed as cell growth at 100 uM incubated for 48 hrs by sulforhodamine B assay relative to control; assay type: functional; conditions: read-out: Activity
# [26] = system: HCT-116; experiment: Growth inhibition of human HCT116 cells assessed as cell growth at 100 uM incubated for 48 hrs by sulforhodamine B assay relative to control; assay type: functional; conditions: HCT-116, 48 h, read-out: Activity
# [27] = system: RPMI-8226; experiment: Growth inhibition of human RPMI8226 cells incubated for 48 hrs by sulforhodamine B assay; assay type: functional, cell-based; conditions: RPMI-8226, 48 h
# [28] = system: SF-268; experiment: Growth inhibition of human SF268 cells assessed as cell growth at 100 uM incubated for 48 hrs by sulforhodamine B assay relative to control; assay type: functional; conditions: SF-268, 48 h, read-out: Activity
# [29] = read-out: LC50 (the source's name)
# [30] = read-out: pLC50 (the source's name) (converted)
structure (smiles),measurement,setting,value
O=C(Nc1cccc(-n2cc(-c3ccncc3)c(-c3cc(O)cc(Cl)c3)n2)c1)c1cc(C(F)(F)F)cc(C(F)(F)F)c1,growth at 1 µM,[1],97%
same,GI50,[2]; read-out: GI50,5.01 µM
same,CC50,[2]; [29],> 100 µM
same,TGI,[2]; read-out: TGI,51.7 µM
same,GI50,[2]; read-out: pGI50 (converted),5.01 µM
same,CC50,[2]; [30],> 100 µM
same,TGI,[2]; read-out: pTGI (converted),51.3 µM
same,growth at 0.01 µM,[3],99%
same,IC50,[4],3.1 µM
same,GI50,[4]; read-out: GI50,3.1 µM
same,CC50,[4]; [29],> 100 µM
same,TGI,[4]; read-out: TGI,> 100 µM
same,GI50,[4]; read-out: pGI50 (converted),3.09 µM
same,CC50,[4]; [30],> 100 µM
same,TGI,[4]; read-out: pTGI (converted),> 100 µM
same,growth at 100 µM,[5],34%
same,GI50,[6]; read-out: GI50,3.18 µM
same,LC50,[6]; read-out: LC50,> 100 µM
same,TGI,[6]; read-out: TGI,> 100 µM
same,GI50,[6]; read-out: pGI50 (converted),3.16 µM
same,LC50,[6]; read-out: pLC50 (converted),> 100 µM
same,TGI,[6]; read-out: pTGI (converted),> 100 µM
same,growth at 0.1 µM,[7],97%
same,growth at 0.1 µM,[8],102%
same,growth at 0.01 µM,[9],57%
same,growth at 0.1 µM,[10],91%
same,GI50,[11]; read-out: GI50,4.71 µM
same,CC50,[11]; [29],> 100 µM
same,TGI,[11]; read-out: TGI,85.3 µM
same,GI50,[11]; read-out: pGI50 (converted),4.68 µM
same,CC50,[11]; [30],> 100 µM
same,TGI,[11]; read-out: pTGI (converted),85.1 µM
same,growth at 0.01 µM,[12],53%
same,growth at 100 µM,[13],34%
same,growth at 0.1 µM,[14],93%
same,growth at 0.01 µM,[15],105%
same,GI50,[16]; read-out: GI50,1.42 µM
same,CC50,[16]; [29],77.8 µM
same,TGI,[16]; read-out: TGI,33.2 µM
same,GI50,[16]; read-out: pGI50 (converted),1.41 µM
same,CC50,[16]; [30],7.76 µM
same,TGI,[16]; read-out: pTGI (converted),3.31 µM
same,growth at 0.01 µM,[17],92%
same,IC50,[18],2.62 µM
same,GI50,[18]; read-out: GI50,2.52 µM
same,CC50,[18]; [29],> 100 µM
same,TGI,[18]; read-out: TGI,> 100 µM
same,GI50,[18]; read-out: pGI50 (converted),2.63 µM
same,CC50,[18]; [30],> 100 µM
same,TGI,[18]; read-out: pTGI (converted),> 100 µM
same,growth at 1 µM,[19],94%
same,growth at 0.1 µM,[20],103%
same,growth at 0.1 µM,[21],105%
same,growth at 1 µM,[22],85%
same,GI50,[23]; read-out: GI50,2.37 µM
same,CC50,[23]; [29],> 100 µM
same,TGI,[23]; read-out: TGI,71.5 µM
same,GI50,[23]; read-out: pGI50 (converted),2.4 µM
same,CC50,[23]; [30],> 100 µM
same,TGI,[23]; read-out: pTGI (converted),7.08 µM
same,growth at 1 µM,[24],100%
same,growth at 100 µM,[25],19%
same,growth at 100 µM,[26],5%
same,IC50,[27],2.5 µM
same,GI50,[27]; read-out: GI50,2.5 µM
same,CC50,[27]; [29],> 100 µM
same,TGI,[27]; read-out: TGI,12.7 µM
same,GI50,[27]; read-out: pGI50 (converted),2.51 µM
same,CC50,[27]; [30],> 100 µM
same,TGI,[27]; read-out: pTGI (converted),12.6 µM
same,growth at 100 µM,[28],31%
